Laboratory results reported in patent US5585382A, “Polycyclic and heterocyclic chromophores for bis-imide tumoricidals” (The DuPont Merck Pharmaceutical Company, priority 1995, dated 1996).
Read-outs that look alike come from different tables or passages of the source.

Assays:
[1] = test system: Clone A human colon cancer cells; assay: In vitro growth inhibition of Clone A cells (MTT, 72 hr); assay type: cell-based; conditions: read-out: Clone A IC50
Method in brief: (§1)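 Cells seeded on day 0 (1×10^3 L1210 or 8×10^2 Clone A per well), graded compound concentrations added on day 1, then 72 hr at 37 °C. MTT 4 h, formazan dissolved in acidic isopropanol, read at 570/630 nm; IC50 from curve fit as half-maximal inhibition of population doublings, eight replicates.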

[2] = test system: Murine leukemia L1210 cells; assay: In vitro growth inhibition of L1210 cells (MTT, 72 hr); assay type: cell-based; conditions: Mus musculus, read-out: L1210 IC50
Method in brief: as §1

DLD-2 human colon tumor = assay: In vivo human tumor xenograft DLD-2 in nude mice; conditions: for Tumor Growth Inhibition activity against DLD-2 (in words): NCI criteria
From the text: (§2) The DLD-2 human colon tumor and MX-1 human mammary carcinoma, were originally obtained from a surgically-removed primary colon carcinoma or breast tumor respectively. The human tumor lines were maintained by serial passage in athymic nude mice. The MX-1 human mammary carcinoma is an established tumor used by the NCI. The DLD-2 human colon tumor has been well characterized. (Dexter, D. L.; Spremulli, E. N.; Matook, G. M.; Diamond, I.; Calabresi, P. Cancer Research 1982, 42, 5010; Dexter, D. L.; Barbosa, J. A.; Calabresi, P. Cancer Research 1979, 39, 1020.)
(§3) The mice used in these experiments were outbred Swiss mice or CD-1 mice bearing the nude (nu/nu) gene. On Day 0, male and female mice weighing 22-30 g are inoculated with 0.2 mL of a 25% tumor mince. This mince is prepared by mincing fresh tumor tissue, grown subcutaneously in passage mice, in sterile physiological saline. Palpable tumors weighing approximately 50 mg appear in the mice within 7-10 days after inoculation. The mice are pair matched by tumor weight and sex into groups of ten each and the test compounds and vehicle control are administered intravenously (i.v.) once daily for nine consecutive days. A >20% decrease in body weight on Day 5 following compound administration is considered an indication of toxicity. Tumor measurements and body weights are recorded once a week. Fifteen to eighteen days after the initial injection the mice are weighed, sacrificed, and the tumors excised and weighed.
(§4) The efficacy of the test compounds is determined by the extent of tumor growth inhibition in treated versus vehicle-treated control mice. Initial tumor weights (mg) are calculated from the tumor dimensions (mm) obtained from caliper measurements, using the formula for a prolate ellipsoid (mg of tumor weight=(length×width^2)/2). Net tumor weights are calculated for each of the treated groups and the vehicle-treated control group by subtracting the initial tumor weight from the final tumor weight (Day 15-18). Results are expressed as a percentage decrease relative to the mean tumor weight for the control vehicle-treated group.
(§5) Tumor Growth Inhibition= [formula]
(§6) The evaluation criteria of the National Cancer Institute for activity in in vivo cancer models were used. Tumor growth inhibition of 58-89% against the various xenografts is considered moderate activity, and inhibition of ≥90% is considered good to excellent activity. Actual tumor regressions (IR=incomplete regression; FR=full regression) indicate excellent to outstanding activity.

[3] = test system: MX-1 human mammary carcinoma; assay: In vivo human tumor xenograft MX-1 in nude mice; conditions: for Tumor Growth Inhibition activity against MX-1 (in words): NCI criteria
From the text: as §2, §3, §4, §5, §6

physchem = conditions: water
[4] = i.v. once daily for nine days, nude mice
[5] = 12.5 mg/kg, i.v. once daily for nine days, nude mice

Row | SMILES | IC50 ([1]; Clone A cells, 72 hr, MTT) | IC50 ([2]; L1210 cells, 72 hr, MTT) | DLD-2 tumor regressions, IR=incomplete regression (DLD-2 human colon tumor; 6 mg/kg, i.v. once daily for nine days, nude mice) | inhibition in vivo at 6 mg/kg (DLD-2 human colon tumor; Mus musculus, DLD2, iv, 216 h, 6 mg/kg, i.v. once daily for nine days, nude mice, read-out: DLD-2 percent tumor growth inhibition) | Tumor Growth Inhibition activity against DLD-2 (in words) (DLD-2 human colon tumor; [4]) | responders at 3 mg/kg ([3]; Mus musculus, iv, 216 h, 3 mg/kg, i.v. once daily for nine days, nude mice, read-out: MX-1 tumor regressions, IR=incomplete regression (converted)) | Tumor Growth Inhibition activity against MX-1 (in words) [3, 4] | solubility (physchem) | IC50 ([1]; 72 h) | IC50 ([2]; L1210, 72 h) | solubility (Solubility in water) | DLD-2 tumor regressions, IR=incomplete regression (DLD-2 human colon tumor; [5]) | inhibition in vivo at 12.5 mg/kg (DLD-2 human colon tumor; Mus musculus, DLD2, iv, 216 h, read-out: DLD-2 percent tumor growth inhibition) | inhibition in vivo at 12.5 mg/kg ([3]; Mus musculus, iv, 216 h, read-out: MX-1 percent tumor growth inhibition) | responders at 12.5 mg/kg ([3]; Mus musculus, iv, 216 h, read-out: MX-1 tumor regressions, IR=incomplete regression) | inhibition in vivo at 12.5 mg/kg (DLD-2 human colon tumor; Mus musculus, DLD2, iv, 216 h, 12.5 mg/kg, i.v. once daily for nine days, nude mice, read-out: DLD-2 percent tumor growth inhibition) | inhibition in vivo at 12 mg/kg ([3]; Mus musculus, iv, 216 h, 12 mg/kg, i.v. once daily for nine days, nude mice, read-out: MX-1 percent tumor growth inhibition) | responders at 12 mg/kg ([3]; Mus musculus, iv, 216 h, 12 mg/kg, i.v. once daily for nine days, nude mice, read-out: MX-1 tumor regressions, IR=incomplete regression (converted))
1 | CS(=O)(=O)O.CS(=O)(=O)O.C[C@H](CNCCNC[C@@H](C)N1C(=O)c2cccc3c2c(cc2ccncc23)C1=O)N1C(=O)c2cccc3cc([N+](=O)[O-])cc(c23)C1=O [Example 118, (R,R)-1-[2-(6-Azaphenanthrene-1,10-dicarboximido)propylamino]-2-[2-(3-nitronaphthalene-1,8-dicarboximido)propylamino]ethane Dihydromethanesulfonate] | 0.0008 µg/mL | 0.029 µg/mL | 7/9 | 99% | moderate to excellent | 100% | moderate to excellent | 65100 µg/mL |  |  |  |  |  |  |  |  |  | 
2 | CS(=O)(=O)O.CS(=O)(=O)O.Cc1cnc2c(c1)cc1c3c(cc([N+](=O)[O-])cc32)C(=O)N([C@H](C)CNCCNC[C@@H](C)N2C(=O)c3cc([N+](=O)[O-])cc4c3c(cc3cc(C)cnc34)C2=O)C1=O [Example 13, (R, R) -1,2-bis-[2-(3-Nitro-7-methyl-5-azaphenanthrene-1, 10-dicarboximido)propylamino]ethane Dihydromethanesulfonate] |  |  |  |  | moderate to excellent |  | moderate to excellent |  | 0.03 µg/mL | 0.065 µg/mL | 7100 µg/mL | 1/9 | 90% | 99% | 77.8% |  |  | 
3 | CS(=O)(=O)O.O=C1c2cccc3cc([N+](=O)[O-])cc(c23)C(=O)N1CCCCNCCCN1C(=O)c2cccc3c2c(cc2ncccc23)C1=O [Example 114, 4-[3-(8-Azaphenanthrene-1,10-dicarboximido)propylamino]-1-(3-nitronaphthalene-1,8-dicarboximido)butane Hydromethanesulfonate] | 0.001 µg/mL | < 0.01 µg/mL |  |  | moderate to excellent |  | moderate to excellent |  |  |  | 680 µg/mL | 4/8 |  |  |  | 99% | 98% | 62.5%
